This series is described as follows: Pharmacokinetics study. It is filed as in vivo, Balb/c male mice. The settings on record: male, Balb/c, mouse, ip; 50 mg/kg i.p., plasma. How it is done:
Pharmacokinetics study. Mass quantification analysis was carried out using an Agilent 6490 iFunnel triple quadrupole (QQQ) mass spectrometer equipped with an Agilent 1290 infinity II UHPLC. ZORBAX C18 (Eclipse Plus, 2.1×50 mm, 1.8 μm particle size) was used as analytical UHPLC column. The mobile phase was composed of 50% mixture of water (with 0.1% formic acid and 4 mM ammonium formate) and acetonitrile (0.1% formic acid). The flow rate of mobile phase was set at 0.5 mL/min and column temperature was adjusted at 30° C. The electrospray ionization source was operated in positive ion mode. […] For SU086-CD3 the [M+H]^+ ions were monitored at m/z 347.1 as the precursor ion and a fragment at m/z 198.1 as the product ion. […] Blood was collected retro-orbitally at 5, 15, 30, 60, 120, 360 and 720 minutes after injection in three mice per time point. Blood plasma was separated via centrifugation at 7,000 RPM for 10 minutes. Each plasma sample was mixed with SU086-CD3 internal standard. 10 μL of plasma was mixed with 190 μL MS-grade acetonitrile and vortexed 30 seconds followed by 5 minutes incubation at RT. Mixture was centrifuged at 11,000 RPM for 15 min at 4° C. and supernatant was collected and further cleaned by re-centrifugation. Each protein-free plasma fraction (n=3, from three independent mouse) was resolved using the HPLC/MS MRM method as described above.

These results are taken from patent US20210347724A1, “METHOXYCHALCONE DERIVATIVES AND USES THEREOF” (The Board of Trustees of the Leland Stanford Junior …, priority 2020, published 2021).

Broadly, the half-life is how long it takes for the measured level to halve. Read a high half-life as slow decline. On to `COc1cc(OC)c(C(=O)/C=C/c2cccc([N+](=O)[O-])c2)c(OC)c1` [SU086], for which the half-life was 1 h.
